Each block holds one compound with its values, some of them ahead of it.
Key:
[1] = target: T1, Chk1 protein kinase (Homo sapiens, UniProt O14757); test: Chk1 enzyme inhibitory activity, ADP-Glo kit; assay type: biochemical; details: bounds, unit μM
T1 sequence (O14757 1-476): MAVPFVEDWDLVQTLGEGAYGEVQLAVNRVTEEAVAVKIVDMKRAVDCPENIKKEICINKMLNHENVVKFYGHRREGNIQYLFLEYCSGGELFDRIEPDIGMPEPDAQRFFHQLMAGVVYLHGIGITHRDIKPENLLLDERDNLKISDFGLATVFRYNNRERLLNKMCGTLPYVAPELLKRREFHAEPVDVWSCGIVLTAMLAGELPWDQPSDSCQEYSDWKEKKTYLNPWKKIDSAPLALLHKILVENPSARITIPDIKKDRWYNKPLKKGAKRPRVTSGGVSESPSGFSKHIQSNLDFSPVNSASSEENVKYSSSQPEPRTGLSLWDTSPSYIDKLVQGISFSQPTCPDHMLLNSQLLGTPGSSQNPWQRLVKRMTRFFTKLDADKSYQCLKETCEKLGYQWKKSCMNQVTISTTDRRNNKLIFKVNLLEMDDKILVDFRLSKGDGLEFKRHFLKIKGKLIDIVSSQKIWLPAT
Protocol: Saurosporine is used as a positive control, the Chk1 enzyme inhibitory activity (IC50) was evaluated using the ADP-Glo kit. […] The phosphorylation process consumes ATP. After the reaction, ADP-Glo™ Reagent consumes the remaining ATP, wherein ADP produced during the reaction can be transformed to ATP by ADP-Glo Detection Reagent. ATP acts as a substrate for the Ultra-Glo™ luciferase catalytic reaction, producing an optical signal. The test compound was dissolved in DMSO to prepare a 10 mM stock solution and diluted to 12 different concentrations in a certain ratio for testing. 1 μL of the test compound and 2 μL of 2.5× Chk1 kinase were added to each well of a 384-well plate, and 2 μL of 1× buffer was added to the control group. After incubation for 10 min at room temperature, 2 μL of 2.5× substrate was added. Ater incubation for 1 h at 37° C., 5 μL. of ADP-Glo™ Reagent was added and the reaction was stopped before incubating again for 1 h at 37° C. 10 μL of ADP-Glo Detection Reagent was added before incubating for 30 min at 37° C., and three parallel wells were set for each sample. […] by luminescence fluorescence microplate reader, and data were calculated using GraphPad Prism 5 software to calculate IC50 values.

[2] = system: human gastric cancer cell BGC-823; test: MTS in vitro proliferation inhibition, BGC-823; assay type: cell-based; details: 72 hours, average of three experiments
Source text: (§1) Cell lines: human multiple myeloma cells RPMI 8226, human mantle cell lymphoma cells Mino, Jeko-1, human lymphoma cells Romas, human acute monocytic leukemia cells MV-4-11, human breast cancer cells MCF-7 Human lung cancer cell A549, human prostate cancer cell LnCAP, human gastric cancer cell BGC-823, human colon cancer cell HCT116, Colo205, and human ovarian cancer cell OVCAR-8. Experimental method: using MTS method for in vitro proliferation Inhibitory activity (IC50) of compounds against different tumor cell lines.
(§2) The cells in the logarithmic growth phase were trypsinized, counted, and seeded at a density of 1×10^4 cells/well in a 96-well plate at 100 μL per well before placing in a 37° C. incubator containing 5% CO2 overnight. Six concentration gradients were set for each compound, and three sets of duplicate wells were set for each concentration. After the addition, the cells were cultured for 72 hours, and 20 μL of MTS was added. After incubating for 2 hours at 37° C., the absorbance at 490 nm (L1) was measured with a SpectraMAX 340 microplate reader. The reference wavelength was 690 nm (L2), and the (L1-L2) value was plotted against the different concentrations of the inhibitor. The half inhibitory concentration IC50 was fitted by the formula.

[3] = system: human lymphoma cells Romas; test: MTS in vitro proliferation inhibition, Romas; assay type: cell-based; details: 72 hours, average of three experiments
Source text: as §1, §2

[4] = system: Human lung cancer cell A549; test: MTS in vitro proliferation inhibition, A549; assay type: cell-based; details: 72 hours, average of three experiments
Source text: as §1, §2

[5] = system: human acute monocytic leukemia cells MV-4-11; test: MTS in vitro proliferation inhibition, MV-4-11; assay type: cell-based; details: MV4-11, 72 hours, average of three experiments
Source text: as §1, §2

[6] = system: human colon cancer cell HCT116; test: MTS in vitro proliferation inhibition, HCT116; assay type: cell-based; details: HCT-116, 72 hours, average of three experiments
Source text: as §1, §2

[7] = system: human mantle cell lymphoma cells Mino; test: MTS in vitro proliferation inhibition, Mino; assay type: cell-based; details: 72 hours, average of three experiments
Source text: as §1, §2

[8] = system: human breast cancer cells MCF-7; test: MTS in vitro proliferation inhibition, MCF-7; assay type: cell-based; details: MCF7, 72 hours, average of three experiments
Source text: as §1, §2

[9] = system: human prostate cancer cell LnCAP; test: MTS in vitro proliferation inhibition, LnCAP; assay type: cell-based; details: 72 hours, average of three experiments
Source text: as §1, §2

[10] = system: human multiple myeloma cells RPMI 8226; test: MTS in vitro proliferation inhibition, RPMI 8226; assay type: cell-based; details: 72 hours, average of three experiments, read-out: IC50(μM) RPMI8226
Source text: as §1, §2

[11] = system: human mantle cell lymphoma cells Jeko-1; test: MTS in vitro proliferation inhibition, Jeko-1; assay type: cell-based; details: 72 hours, average of three experiments
Source text: as §1, §2

[12] = system: human ovarian cancer cell OVCAR-8; test: MTS in vitro proliferation inhibition, OVCAR-8; assay type: cell-based; details: 72 hours, average of three experiments
Source text: as §1, §2

[13] = system: human colon cancer cell Colo205; test: MTS in vitro proliferation inhibition, Colo205; assay type: cell-based; details: COLO 205, 72 hours, average of three experiments
Source text: as §1, §2

IC50 [1]: > 10 µM
Compound: Cc1cc(Nc2ncc(-c3cccs3)c(NC3CCNCC3)n2)no1 [Compound 4, 5-(thien-2-yl)-N^2-(5-methyloxazol-3-yl)-N^4-(piperidin-4-yl)-2,4-diaminopyrimidine]

IC50 [2]: 2.11 µM | IC50 [3]: 0.401 µM | IC50 [4]: 1.02 µM | IC50 [5]: 0.035 µM | IC50 [6]: 1.39 µM | IC50 [7]: 0.608 µM | IC50 [8]: 2.56 µM | IC50 [9]: 0.842 µM | IC50 [10]: 3.6 µM | IC50 [11]: 0.253 µM | IC50 [12]: 3.24 µM | IC50 [13]: 1.54 µM
Compound: Cn1cc(-c2cnc(Nc3ccc(C#N)nc3)nc2N[C@H]2CCCNC2)cn1 [Compound 21, (S)-5-(1-methyl-1H-pyrazol-4-yl)-N^2-(2-cyanopyridin-5-yl)-N^4-(piperidin-3-yl)-2,4-diaminopyrimidine]

IC50 [1]: > 10 µM
Compound: N#Cc1ccc(Nc2ncc(-c3ccccc3N)cn2)cn1 [Compound 31, 5-(2-aminophenyl)-N-(2-cyanopyridin-5-yl)-2-aminopyrimidine]

IC50 [1]: > 10 µM
Compound: Cc1cc(Nc2ncc(-c3cnn(C)c3)c(NC3CCNCC3)n2)n[nH]1 [Compound 1, 5-(1-methyl-1H-pyrazol-4-yl)-N^2-(3-methylpyrazol-5-yl)-N^4-(piperidin-4-yl)-2,4-diaminopyrimidine]

IC50 [1]: > 10 µM
Compound: Cc1cc(Nc2ncc(-c3cnn(C)c3)c(NC3CCNCC3)n2)no1 [Compound 2, 5-(1-methyl-1H-pyrazol-4-yl)-N^2-(5-methyloxazol-3-yl)-N^4-(piperidin-4-yl)-2,4-diaminopyrimidine]

IC50 [1]: > 10 µM
Compound: N#Cc1ccc(Nc2ncc(Br)cn2)cn1 [Compound 30, 5-bromo-N-(2-cyanopyridin-5-yl)-2-aminopyrimidine]

IC50 [1]: > 10 µM
Compound: Cc1cc(Nc2ncc(-c3cccs3)c(NC3CCNCC3)n2)n[nH]1 [Compound 3, 5-(thien-2-yl)-N^2-(5-methylpyrazol-3-yl)-N^4-(piperidin-4-yl)-2,4-diaminopyrimidine]

IC50 [1]: > 10 µM
Compound: Cc1cc(Nc2ncc(-c3ccco3)c(NC3CCNCC3)n2)no1 [Compound 6, 5-(furan-2-yl)-N^2-(5-methyloxazol-3-yl)-N^4-(piperidin-4-yl)-2,4-diaminopyrimidine]

IC50 [2]: 3.17 µM | IC50 [3]: 0.536 µM | IC50 [4]: 0.774 µM | IC50 [5]: 0.044 µM | IC50 [6]: 2.68 µM | IC50 [7]: 0.708 µM | IC50 [8]: 1.8 µM | IC50 [9]: 1.44 µM | IC50 [10]: 3.34 µM | IC50 [11]: 0.342 µM | IC50 [12]: 4.71 µM | IC50 [13]: 2.77 µM
Compound: N#Cc1ccc(Nc2ncc(-c3ccco3)c(NC3CCNCC3)n2)cn1 [Compound 17, 5-(furan-2-yl)-N^2-(2-cyanopyridin-5-yl)-N^4-(piperidin-4-yl)-2,4-diaminopyrimidine]

IC50 [1]: < 1 µM
Compound: N#Cc1ccc(Nc2ncc(C(F)(F)F)c(NCC3CCNCC3)n2)cn1 [Compound 34, 5-trifluoromethyl-N^2-(2-cyanopyridin-5-yl)-N^4-(piperidin-4-methyl)-2,4-diaminopyrimidine]

IC50 [1]: > 10 µM
Compound: Cc1cc(Nc2ncc(-c3ccco3)c(NC3CCNCC3)n2)n[nH]1 [Compound 5, 5-(furan-2-yl)-N^2-(5-methylpyrazol-3-yl)-N^4-(piperidin-4-yl)-2,4-diaminopyrimidine]

IC50 [1]: > 10 µM
Compound: Cn1cc(-c2cnc(Nc3cnc(C#N)cn3)nc2NC2CCNCC2)cn1 [Compound 27, 5-(1-methyl-1H-pyrazol-4-yl)-N^2-(2-cyanopyrazin-5-yl)-N^4-(piperidin-4-yl)-2,4-diaminopyrimidine]

IC50 [1]: < 1 µM
Compound: N#Cc1ccc(Nc2ncc(C(F)(F)F)c(NC3CCNCC3)n2)cn1 [Compound 35, 5-trifluoromethyl-N^2-(2-cyanopyridin-5-yl)-N^4-(piperidin-4-yl)-2,4-diaminopyrimidine]

IC50 [1]: > 10 µM
Compound: N#Cc1ccc(Nc2ncc(-c3ccccc3NCC3CCNCC3)cn2)cn1 [Compound 33, 5-(2-(piperidin-4-methyl)aminophenyl)-N-(2-cyanopyridin-5-yl)-2-aminopyrimidine]

IC50 [1]: > 10 µM
Compound: Cn1cc(-c2cnc(Nc3ccc(C#N)cn3)nc2NC2CCNCC2)cn1 [Compound 26, 5-(1-methyl-1H-pyrazol-4-yl)-N^2-(3-cyanopyridin-6-yl)-N^4-(piperidin-4-yl)-2,4-diaminopyrimidine]

IC50 [1]: < 1 µM
Compound: N#Cc1ccc(Nc2ncc(C(F)(F)F)c(N[C@@H]3CCCNC3)n2)cn1 [Compound 36, (R)-5-trifluoromethyl-N^2-(2-cyanopyridin-5-yl)-N^4-(piperidin-3-yl)-2,4-diaminopyrimidine]

— patent US10822327B2, “2-substituted aromatic ring-pyrimidine derivative and preparation and application thereof” (ZHEJIANG UNIVERSITY, priority 2016, dated 2020)
